Reference: patent US20240082285A1 (priority 2022, published 2024)

Columns and labels:
[1] = tested on: MA104 cells; test: Toxicity of Chebulinic acid to MA104 cells by CCK8 method; type: cell-based; conditions: 48 h
Procedure: According to the common drug concentration range of Chebulinic acid, the cytotoxicity pre-experiment is performed between 1 μM and 25 μM in this experiment. The MA104 cells at the logarithmic growth stage are observed under a microscope. The cellular morphology is uniform and full with clear edges, and when the number reaches 80%, digestion, centrifugation and re-suspension are conducted. After further dilution of the suspension, […] is taken on a blood cell counting plate to count and calculate the required cell volume. Then, the cells are laid in a 96-well plate, 100 µL of cell suspension is added to each well, and the cell density is 8×10^4 cells/mL. When the cells adhere to the wall to form a single layer, the drug group is administered, and the normal group is added with an equal volume of DMEM (without serum). After incubation for 48 h, the cytotoxicity of Chebulinic acid is detected by CCK8 reagent. 1/10 volume of CCK8 solution is added to each well and incubated in an incubator. After 90 min, the absorbance is detected and recorded under the condition of oscillation for 10 s and at 450 nm wavelength. The formula for the relative survival rate of the cells is:
{(Axpenmentai group−Ablank)/(Acontrol group−Ablaimk)×100%}.

[2] = tested on: VP6 gene; test: Gene expression of structural protein VP6 in RV-infected MA104 cells, real-time quantitative PCR; type: cell-based, Rotavirus; conditions: 1 μM, 5 M and 10 μM, compared with RV group, most significant at 5 μM
Source text: The Experimental Method is as Follows: • (1) Extraction and quantification of total RNA; • (2) Primer sequence design; • (3) Reverse transcription reaction; • (4) SYBR Green I fluorescent labeling is used for real-time quantitative PCR detection of expression of VP6 gene.

[3] = tested on: Wa strain RV; test: Effect against RV adsorption (drug before virus), CCK-8 viral inhibition rate; type: cell-based, Rotavirus; conditions: MA104 cells, 1 μM, 5 μM and 10 μM, compared with ribavirin group
Procedure: The 96-well culture plate of the MA104 cells that grow to the single layer is added with the drug solution. Each drug solution is repeated with 6 wells, and each well contains 100 μL. An equal volume of ribavirin is added to the positive control group, and only an equal volume of DMEM culture solution (without serum) is added to the normal cell control group and the viral control group. Incubation is conducted at 37° C. and 5% CO2 for 2 h. The drug solution is sucked out. Except the normal cell control group, 100 TCID50 virus is added (the virus acts with 10 μg/mL pancreatin at 37° C. for 30 min), and each well contains 100 μL. Incubation is conducted at 37° C. and 5% CO2 for 2 h. The virus is sucked out, the cell maintenance solution is added, and each well contains 200 μL. Incubation is conducted at 37° C. and 5% CO2 for continuous observation. After culture for 48 h, CCK-8 kit is used for detection. 1/10 volume of CCK-8 solution is added to each well, and incubated in the incubator. After 90 min, the absorbance is detected and recorded at 450 nm wavelength. The experiment is repeated for 3 times. The formula of the viral inhibition rate is:
(§1) {(Adrug group−Avirus group)/(Anormal group−Avirus group)×100%}.

[4] = tested on: Wa strain RV; test: Direct killing effect on RV (drug mixed with virus), CCK-8 viral inhibition rate; type: cell-based, Rotavirus; conditions: MA104 cells, 100 TCID50 virus, 48 h; inhibition rate lower than ribavirin group
Procedure: The drug is mixed with 100 TCID50 virus solution (the virus acts with 10 μg/mL pancreatin for 30 min) at an equal volume for 2 h. After the cells are washed twice with PBS, the cells are added to the 96-well culture plate of the MA104 cells that grow to the single layer. In the positive control group, the same operation as above is conducted for ribavirin and RV, and only an equal volume of DMEM (without serum) is added to the normal cell control group and the viral control group. Incubation is conducted at 37° C. and 5% CO2 for 2 h. Then, the mixed solution is sucked out, the cell maintenance solution is added, and each well contains 100 μL. Incubation is conducted at 37° C. and 5% CO2 for continuous observation. After culture for 48 h, CCK-8 kit is used for detection. 1/10 volume of CCK-8 solution is added to each well, and incubated in the incubator. After 90 min, the absorbance is detected and recorded at 450 nm wavelength. The viral inhibition rate of the drug is calculated, and the experiment is repeated for 3 times. The formula of the viral inhibition rate is:
as §1

[5] = tested on: Wa strain RV; test: Effect against RV synthesis (drug after virus), CCK-8 viral inhibition rate; type: cell-based, Rotavirus; conditions: 48 h; for effect of synthesis inhibition on RV: MA104-2 cells, 100 TCID50 virus
Procedure: 100 TCID50 virus solution (the virus acts with 10 μg/mL pancreatin for 30 min) is added to the 96-well culture plate of the MA104-2 cells that grow to the single layer, and each well contains 100 μL. The cells have been washed twice with PBS. Normal cell control is set, and added with an equal volume of DMEM. Incubation is conducted at 37° C. and 5% CO2 for 2 h. Then, the virus solution is sucked out and added into different concentrations of drug solution and ribavirin respectively, and each well contains 100 μL. Virus control is set. Only the cell maintenance solution is added, and each well contains 100 μL. Incubation is conducted at 37° C. and 5% CO2 for continuous observation. After continuous culture for 48 h, CCK-8 kit is used for detection. 1/10 volume of CCK-8 solution is added to each well, and incubated in the incubator. After 90 min, the absorbance is detected and recorded at 450 nm wavelength. The viral inhibition rate of the drug is calculated, and the experiment is repeated for 3 times. The formula of the viral inhibition rate is:
as §1

[6] = Rotavirus, read-out: anti-RV inhibition rate (synthesis)

Row | Compound | drug toxicity to the cells ([1]; 1 μM to 10 μM) | average survival rate ([1]; Chebulinic acid 1 μM to 10 μM) | VP6 expression [2] | anti-RV adsorption effect [3] | direct killing effect on RV [4] | effect of synthesis inhibition on RV [5] | inhibition at 1 µM [5, 6] [%] | inhibition at 5 µM [5, 6] [%] | inhibition at 10 µM [5, 6] [%]
1 | O=C(O)C[C@@H]1C(=O)O[C@H]2[C@H](OC(=O)c3cc(O)c(O)c(O)c3)[C@@H](OC(=O)c3cc(O)c(O)c4c3[C@H]1[C@H](O)C(=O)O4)[C@H](OC(=O)c1cc(O)c(O)c(O)c1)O[C@@H]2COC(=O)c1cc(O)c(O)c(O)c1 [Chebulinic acid] | no drug toxicity | above 95% | significantly decreased | no obvious anti-RV adsorption effect | no obvious direct killing effect | obvious effect of synthesis inhibition | 80 | 75.3 | 61.9
2 | NC(=O)c1ncn([C@@H]2O[C@H](CO)[C@@H](O)[C@H]2O)n1 [ribavirin, reference compound] | – | – | – | – | – | obvious effect of synthesis inhibition | – | – | –
